Results from ChEMBL document CHEMBL2407046, “Synthesis of 2α-heteroarylalkyl active vitamin d3 with therapeutic effect on enhancing bone mineral density in vivo” (ACS Med Chem Lett, 2013).
pEC50: −log10 of the molar value.

How the values were obtained:
Rattus norvegicus [1] = experiment: Antiosteoporotic activity in ovariectomized Sprague-Dawley rat osteoporosis model assessed as increase in bone mineral density in spine at 0.007 mg/kg/day administered 5 times a week for 4 weeks measured 24 hrs post last dose by dual X-ray absorption meter (reference value: 0.209 +/- 0.011 g/cm'2); assay type: functional
Rattus norvegicus [2] = experiment: Antiosteoporotic activity in ovariectomized Sprague-Dawley rat osteoporosis model assessed as increase in bone mineral density in spine at 0.02 mg/kg/day administered 5 times a week for 4 weeks measured 24 hrs post last dose by dual X-ray absorption meter (reference value: 0.209 +/- 0.011 g/cm'2); assay type: functional
Vitamin D3 receptor = molecular target: T1, Vitamin D3 receptor (Homo sapiens, UniProt P11473); experiment: Transactivation of VDR-mediated osteocalcin promoter in human HOS/SF cells after 24 hrs by luciferase reporter gene assay; assay type: cell-based
T1 sequence (P11473 whole entry): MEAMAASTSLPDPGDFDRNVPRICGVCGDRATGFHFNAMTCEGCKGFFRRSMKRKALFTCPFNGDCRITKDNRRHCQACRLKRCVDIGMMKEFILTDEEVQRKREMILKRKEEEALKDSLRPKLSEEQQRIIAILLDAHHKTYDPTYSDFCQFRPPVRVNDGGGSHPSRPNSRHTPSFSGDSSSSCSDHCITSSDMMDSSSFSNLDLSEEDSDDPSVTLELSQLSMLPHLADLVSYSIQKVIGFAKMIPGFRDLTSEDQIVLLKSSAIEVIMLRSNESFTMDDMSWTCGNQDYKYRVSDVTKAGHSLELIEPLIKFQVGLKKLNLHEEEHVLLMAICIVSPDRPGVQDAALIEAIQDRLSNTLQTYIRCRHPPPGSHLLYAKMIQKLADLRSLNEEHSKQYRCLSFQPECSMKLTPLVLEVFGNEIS

Rattus norvegicus [3] = experiment: Toxicity in ovariectomized Sprague-Dawley rat osteoporosis model assessed as increase in serum Ca level at 0.02 mg/kg/day administered 5 times a week for 4 weeks measured 24 hrs post last dose (reference value: 9.25 +/- 0.11 mg/dL); assay type: organism-based; settings: in vivo
Rattus norvegicus [4] = experiment: Toxicity in ovariectomized Sprague-Dawley rat osteoporosis model assessed as increase in serum Ca level at 0.007 mg/kg/day administered 5 times a week for 4 weeks measured 24 hrs post last dose (reference value: 9.25 +/- 0.11 mg/dL); assay type: organism-based; settings: in vivo
Rattus norvegicus [5] = experiment: Antiosteoporotic activity in ovariectomized Sprague-Dawley rat osteoporosis model assessed as increase in bone mineral density in spine at 0.1 mg/kg/day administered 5 times a week for 4 weeks measured 24 hrs post last dose by dual X-ray absorption meter (reference value: 0.209 +/- 0.019 g/cm'2); assay type: functional
Rattus norvegicus [6] = experiment: Toxicity in ovariectomized Sprague-Dawley rat osteoporosis model assessed as increase in serum Ca level at 0.025 mg/kg/day administered 5 times a week for 4 weeks measured 24 hrs post last dose (reference value: 9.14 +/- 0.24 mg/dL); assay type: organism-based; settings: in vivo
Rattus norvegicus [7] = experiment: Toxicity in ovariectomized Sprague-Dawley rat osteoporosis model assessed as increase in serum Ca level at 0.1 mg/kg/day administered 5 times a week for 4 weeks measured 24 hrs post last dose (reference value: 9.14 +/- 0.24 mg/dL); assay type: organism-based; settings: in vivo
Rattus norvegicus [8] = experiment: Antiosteoporotic activity in ovariectomized Sprague-Dawley rat osteoporosis model assessed as increase in bone mineral density in spine at 0.025 mg/kg/day administered 5 times a week for 4 weeks measured 24 hrs post last dose by dual X-ray absorption meter (reference value: 0.209 +/- 0.019 g/cm'2); assay type: functional

## C=C1/C(=C\C=C2/CCC[C@]3(C)[C@@H]([C@H](C)CCCC(C)(C)O)CC[C@@H]23)C[C@@H](O)[C@H](CCn2ncnn2)[C@@H]1O
Rattus norvegicus [1]
  Activity: 0.214 g/cm2
Rattus norvegicus [2]
  Activity: 0.223 g/cm2
Vitamin D3 receptor
  pEC50: 11.00
Rattus norvegicus [3]
  Activity: 9.66 mg/dL
Rattus norvegicus [4]
  Activity: 9.41 mg/dL

## C=C1/C(=C\C=C2/CCC[C@]3(C)[C@@H]([C@H](C)CCCC(C)(C)O)CC[C@@H]23)C[C@@H](O)[C@H](CCn2cnnn2)[C@@H]1O
Vitamin D3 receptor
  pEC50: 9.54

## C=C1/C(=C\C=C2/CCC[C@]3(C)[C@@H]([C@H](C)CCCC(C)(C)O)CC[C@@H]23)C[C@@H](O)[C@H](CCn2cncn2)[C@@H]1O
Vitamin D3 receptor
  pEC50: 9.82

## C=C1/C(=C\C=C2/CCC[C@]3(C)[C@@H]([C@H](C)CCCC(C)(C)O)CC[C@@H]23)C[C@@H](O)[C@H](CCn2nccn2)[C@@H]1O
Vitamin D3 receptor
  pEC50: 10.36

## C=C1/C(=C\C=C2/CCC[C@]3(C)[C@@H]([C@H](C)CCCC(C)(C)O)CC[C@@H]23)C[C@@H](O)[C@H](CCn2ccnn2)[C@@H]1O
Vitamin D3 receptor
  pEC50: 9.68

## C=C1/C(=C\C=C2/CCC[C@]3(C)[C@@H]([C@H](C)CCCC(C)(C)O)CC[C@@H]23)C[C@@H](O)[C@H](CCn2ccnc2)[C@@H]1O
Vitamin D3 receptor
  pEC50: 9.17

## C=C1/C(=C\C=C2/CCC[C@]3(C)[C@@H]([C@H](C)CCCC(C)(C)O)CC[C@@H]23)C[C@@H](O)C[C@@H]1O [CALCITRIOL]
Rattus norvegicus [5]
  Activity: 0.228 g/cm2
Rattus norvegicus [6]
  Activity: 10.14 mg/dL
Rattus norvegicus [7]
  Activity: 10.35 mg/dL
Rattus norvegicus [8]
  Activity: 0.218 g/cm2
